According to patent US12297296B2, “Nano small peptide and its use in preparation of drugs for treating and preventing fundus vascular diseases” (FUTU Biotech Co., Ltd., priority 2021, dated 2025):
Where a SMILES comes first, the peptide text is derived from it. [ ]: non-standard residue; d: D form. The star is where a group is joined. ξ: configuration not given here. Palmitoyl = CCCCCCCCCCCCCCCC(=O)*; ξF = NC(Cc1ccccc1)C(=O)O

Assays:
[1] = biological target: T1, sSema4D (Mus musculus, UniProt O09126); assay: CD spectra of nanoparticles before and after induction by sSema4D protein; type: physicochemical; parameters: the free Sema4D protein after enzyme cleavage of Sema4D, that is, the sSema4D protein purchased from R&D Systems Company; purchased R&D Systems; conditions: 20 μM; for CD secondary structure before induction by sSema4D protein: H2O containing 0.5% dimethyl sulfoxide, signal at 200 nm negative; for CD secondary structure after induction by sSema4D protein: signal at 200 nm positive, negative signal at 220 nm
T1 sequence (O09126 24-733 limits assumed): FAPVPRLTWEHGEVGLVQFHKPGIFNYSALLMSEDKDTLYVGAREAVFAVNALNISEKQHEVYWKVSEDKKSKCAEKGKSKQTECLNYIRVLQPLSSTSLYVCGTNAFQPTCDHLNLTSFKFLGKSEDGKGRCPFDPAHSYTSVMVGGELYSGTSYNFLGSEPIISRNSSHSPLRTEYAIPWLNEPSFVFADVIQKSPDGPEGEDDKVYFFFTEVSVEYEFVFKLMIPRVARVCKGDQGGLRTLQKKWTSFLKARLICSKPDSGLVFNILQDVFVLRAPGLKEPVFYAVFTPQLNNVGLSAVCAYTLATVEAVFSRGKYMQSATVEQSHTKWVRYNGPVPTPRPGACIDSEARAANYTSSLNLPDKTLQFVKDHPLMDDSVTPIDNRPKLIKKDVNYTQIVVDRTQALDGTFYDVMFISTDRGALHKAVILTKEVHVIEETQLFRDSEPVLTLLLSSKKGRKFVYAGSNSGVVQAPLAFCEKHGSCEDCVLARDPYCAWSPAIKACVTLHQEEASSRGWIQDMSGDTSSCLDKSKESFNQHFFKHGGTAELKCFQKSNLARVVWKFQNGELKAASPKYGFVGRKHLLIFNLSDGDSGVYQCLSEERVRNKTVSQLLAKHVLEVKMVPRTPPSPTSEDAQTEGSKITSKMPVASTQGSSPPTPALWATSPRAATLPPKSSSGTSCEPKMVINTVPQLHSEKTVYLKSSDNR
Description: (§1) First, FG and FH nanoparticle solutions with a concentration of 20 μM were prepared as follows. 0.01 mmol of FG (or FH) was weighed and dissolved in 1 mL of DMSO solution, and then diluted into 5 folds to a concentration of 2 mM, thus obtaining mother solution A. 10 μL of mother solution A was quickly added to 1 mL of water, and the resulting solution was then vortexed for 30 s to obtain a nanoparticle solution. Second, samples were made. 10 ul of FG (or FH) solution was added dropwise onto a copper mesh for 5 min, and the excess solution was removed with filter paper. 10 μL of uranyl acetate stain was added dropwise for 5 min, and the excess stain was removed with filter paper. Washing with 10 μl of deionized water was carried out once. The samples were dried in vacuum overnight. Finally, transmission electron microscopy observations were performed on an HT-7700 transmission electron microscope (Hitachi, Tokyo, Japan). Scale bar was 200 nm.
The CD spectra of FH and FG nanoparticles (20 μM) were collected at room temperature using a CD spectrometer (JASCO-1500, Tokyo, Japan) with an optical path length of 1 mm. Measurements were performed between 190 nm and 300 nm with a resolution of 1.0 nm at a scan speed of 300 nm/min. For each measurement, three spectra were collected and averaged.

[2] = biological target: T1, sSema4D; assay: ELISA of sSema4D in vitreous humor after eye drops; type: in vivo; parameters: release and collect the vitreous humor; from tissue; host or cells: vitreous humor of C57 mice; conditions: C57 mice, 10 μL of 20 μM eye drops, morning and evening, 3 days
Description: In this example, 8-week-old C57 male mice were used, with ten data points in each group, and each data point was the average of the experimental results of 5 mice.
The water on the eyeballs was then removed with filter paper to release and collect the vitreous humor. ELISA kit (Shanghai Yuanmu Biotechnology Co., Ltd.) was used to detect the expression of sSema4D protein in vitreous humor.
Control group was instilled with the same volume of PBS solution; vehicle group was instilled the same volume of artificial tears (Systane).

[3] = test system: OIR model mice; assay: Fundus angiogenesis in OIR model, Isolectin B4 confocal detection; type: in vivo, mouse; conditions: for percentage of abnormal blood vessels in the total retinal area (proportion of new blood vessels): 2 nmol injected into the vitreous on day 12, read on day 17
Description: Treatment group (OIR): After giving birth, 3-4 month old C57BL/6 mother mice were placed in an oxygen chamber with 75% oxygen together with 7 day old young mice, and the young mice and the mother mice were taken out on the 12th day of birth of the young mice. Immediately after the young mice were anesthetized, 2 nmol of FH, 2 nmol of FG, and 1 μg of Sema4D neutralizing antibody (BMA-12) (BMA-12, i.e., anti-Sema4D) were injected into the vitreous, and an equal volume of DMSO was used as a control. The young mice were then further raised in normal air for 5 days; the young mice were anesthetized on the 17th day of birth, and after cardiac perfusion with normal saline, the eyeballs were separated and then fixed, stained with Isolectin B4 overnight at 4° C., flatly spread on a glass slide, and photographed.
Control group (Normal): Young mice, grown with normoxia, were anesthetized on the 17th day of birth. After cardiac perfusion with normal saline, the eyeballs were taken out, and the retinas were peeled off and then fixed with 4% paraformaldehyde, stained with Isolectin B4 at 4° C. overnight, flatly spread on a glass slide, and photographed.
The results are shown in A in FIGS. 4A and 4B. Laser confocal was carried out to detect retinal angiogenesis, and ImageJ was carried out to calculate the ratio of retinal neovascularization clusters to the entire retinal area, that is, the proportion of new blood vessels. […] It can be seen from FIG. 4A that the treatment effect of FH is the best.

[4] = test system: OIR model mice; assay: Evans blue leakage test, fundus vascular leakage; type: in vivo, mouse; conditions: 2 nmol intravitreal
[5] = DLS particle size and zeta potential of nanoparticles; type: physicochemical; conditions: zeta sizer, 25° C.
Description: as §1
The particle size and zeta potential of FH and FG nanoparticles were measured with a zeta sizer (Nano ZZ90, Malvern, UK) at 25° C.

Row | CD secondary structure before induction by sSema4D protein [1] | CD secondary structure after induction by sSema4D protein [1] | charge (zeta potential) [5] | particle diameter [5] [nm] | Compound | expression of sSema4D protein in the vitreous humor [2] | percentage of abnormal blood vessels in the total retinal area (proportion of new blood vessels) [3] | treatment effect on fundus angiogenesis compared with Sema4D neutralizing antibody (BMA-12, 1 μg) ([3]; 2 nmol intravitreal) | treatment effect on fundus angiogenesis, ranking among treatments (FIG. 4A) ([3]; 2 nmol intravitreal) | treatment effect on fundus vascular leakage compared with anti-Sema4D (1 μg) [4] | vascular leakage of the fundus [4]
1 | random coil structure | transition to a β-sheet folded structure | +40.4 mV | 54.43±2.8 | CCCCCCCCCCCCCCCC(=O)NC(Cc1ccccc1)C(=O)N[C@@H](Cc1ccccc1)C(=O)N[C@H](C(=O)N[C@@H](CC(C)C)C(=O)N[C@@H](CCCCN)C(=O)N[C@@H](CCCCN)C(=O)N[C@@H](CCC(N)=O)C(=O)N[C@@H](CCCCN)C(=O)N[C@@H](CCCNC(=N)N)C(=O)N1CCC[C@H]1C(=O)N[C@@H](CCCNC(=N)N)C(=O)N[C@@H](Cc1c[nH]cn1)C(=O)O)C(C)C (stereo in doubt) [FH, hexadecanoyl-FFVLK-KQKRPRH] | reduce the expression of sSema4D protein in the vitreous humor | reduce the percentage of abnormal blood vessels in the total retinal area | comparable | the best | comparable | can inhibit vascular leakage of the fundus
2 | random coil structure | transition to a β-sheet folded structure | +44.8 mV | 57.67±2.6 | CCCCCCCCCCCCCCCC(=O)NC(Cc1ccccc1)C(=O)N[C@@H](Cc1ccccc1)C(=O)N[C@H](C(=O)N[C@@H](CC(C)C)C(=O)N[C@@H](CCCCN)C(=O)N[C@@H](CCCCN)C(=O)N[C@@H](CC(N)=O)C(=O)N[C@@H](CCCCN)C(=O)N[C@@H](C)C(=O)N[C@@H](C)C(=O)N[C@@H](CCCCN)C(=O)NCC(=O)O)C(C)C (stereo partly shown) [FG] (Palmitoyl-[ξF]FVLKKNKAAKG-OH) | reduce the expression of sSema4D protein in the vitreous humor | reduce the percentage of abnormal blood vessels in the total retinal area | comparable |  | comparable | can inhibit vascular leakage of the fundus
